Holding throughout (type): cell-based, human
One data set concerns Treg. As to the kind of experiment: Sorted Treg and Teff treated with drug for 7 days, co-cultured with AaPC to Day 21. The following applies: for Expression of CD25, CTLA-4, or loss of IL-2: Day 21; for Expression of Treg-specific marker LAP: Day 21, early drug treatment. An excerpt:
Healthy donor derived peripheral blood from MDACC Blood Bank, Houston, Tex., was subjected to density gradient centrifugation to isolate mononuclear cells which were either rested in complete media (CM) or frozen as previously outlined. The use of rested or frozen peripheral blood derived mononuclear cells (PBMC) is outlined in each experiment. T cells from PBMC were stimulated using thawed OKT3 antibody-loaded K562 clone #4, an activating and propagating cell (AaPC). See Singh H, et al, PloS one 2013, 8(5). The presence of mycoplasma was tested in AaPC before stimulation of T cells. Cell counting was accomplished by 0.1% Trypan Blue (Sigma-Aldrich, T8154) exclusion using automated cell counting (Nexcelcom, Lawrence, Mass.). Cell Isolation was accomplished using magnetic bead based sorting with the CD4+, CD25+ Regulatory T Cell Isolation Kit following the manufacturer's instructions (Miltenyi Biotec, San Diego, Calif., 130-091-301). Briefly, CD4^+ T cells were negatively selected before sorting one time with anti-CD25 beads was used to differentiate between effector T cells (CD25^neg) and T^reg (CD25^pos).
Sorted Treg Differentiate the Effects of MTX, 5-FU, and G418 on Selection in Bulk PBMC. Magnetic sorting for CD4 and CD25 expressing PBMC yielded a CD4+ CD25+ population that is widely considered to contain Treg, and a CD25neg population of effector T cells (Teff). See Miyara M. et al., Immunity 2009, 30(6):899-911. These populations were treated with the same concentrations of MTX, 5-FU, G418, or no treatment, as above, for the first 7 days of co-culture with AaPC. After this period of time, co-culture continued without drug by stimulating with AaPC every 7 days until Day 21. Cells were assayed at this time for expression of CD25, CTLA-4, LAP, and IL-2, as before. The experimental outline can be seen in FIG. 15A. A [^3H] thymidine incorporation assay was also performed to determine the effect of each drug on the functionality of propagated Treg.

Data set [1] concerns TCD4, FoxP3. As to the kind of experiment: Selection or depletion of TCD4, FoxP3 in PBMC stimulated with anti-CD3/CD28 and IL-2 in presence of drug. The following applies: for Selection of TCD4, FoxP3 in surviving population at lethal dose: freshly derived PBMC, day 7; for Selection or depletion of TCD4, FoxP3, dose dependence: thawed PBMC, 7 days. The protocol: (§1) Culture Conditions: Acellular stimulation was accomplished as previously described using soluble anti-CD3—30 ng/mL, anti-CD28—100 ng/mL, and human IL-2—50 IU/mL, as previously described. […] Acellular stimulation experiments received addition of toxic drug or treatment on the same day as stimulation.
Cultured T cells were washed in FACS staining solution[95] before surface antibody staining was performed in FACS staining solution with fluorochrome-conjugated antibodies at 4° C. for at least 30 minutes. Intracellular transcription factor and cytokine staining utilized the FoxP3/transcription factor staining buffer set manufacturer's protocol (eBioscience, 00-5523-00), and was performed following surface staining. The BD FACSCalibur (BD Biosciences) analyzed most samples expressing FoxP3. Flow cytometry data analysis utilized FlowJo v 10.0.5 (Tree Star Inc., Ashland, Oreg.). Flow cytometric imaging of cells stained for phosphorylated antigens was accomplished using the ImageStreamX Mark II (Amnis, Seattle, Wash.) with the following protocol; after surface staining, samples were fixed in 100% methanol (Sigma) for 1 hour at 4° C. before washing and staining in FoxP3/transcription factor staining buffer set wash buffer as outlined by the manufacturer's protocol. Analysis of image cytometry data utilized Amnis IDEAS v 6.0.
Drug Selection of TCD4, FoxP3 by MTX Occurs in Part Through Toxicity. In order to determine how MTX contributes to the selection of TCD4, FoxP3, freshly derived PBMC were stimulated with anti-CD3/CD28 antibodies and IL-2 in the presence of cytotoxic drugs or lethal γ-irradiation. […] See Bar-Nun S. et al., Biochimica et biophysica acta 1983, 741(1):123-127. […] See Cao M. et al., International journal of radiation biology 2011, 87(1):71-80.

The next data set deals with Teff. As to the kind of experiment: [3H] thymidine incorporation suppression assay, treated Treg mixed with untreated Teff. The following applies: 72 hour suppression assay. The protocol:
A thymidine incorporation assay was performed with anti-CD3/CD28 and IL-2 used to stimulate each well containing 2*10^5 viable cells. Varying ratios of effector T cells (Teff) to Treg were combined in each well and all wells were run in triplicate in U-bottom 96 well plates. At 48 hours 1 μCi [^3H] Thymidine (Perkin-Elmer, Waltham, Mass.) was added to each well, and 24 hours later the cells were assessed for radioactivity on a Top Count NXT (Perkin-Elmer). Treg mediated suppression of growth was determined by the following equation: (No Treatment Teff [cpm]−(Treg & No Treatment Teff [cpm]))/No Treatment Teff [cpm].

In data set [2] the test system is TCD4, FoxP3. As to the kind of experiment: Depletion of TCD4, FoxP3 in resting, unstimulated PBMC. From the text: Representative flow diagrams of resting PBMC in FIG. 14D—upper panel show the loss in expression of FoxP3 for CD4+ T cells after treatment with G418. […] Thus, […] TCD4, FoxP3 are depleted following treatment with aminoglycoside G418.
The subject of another data set is PBMC. The protocol:
as §1
Drug Selection of TCD4, FoxP3 by MTX Occurs in Part Through Toxicity. In order to determine how MTX contributes to the selection of TCD4, FoxP3, freshly derived PBMC were stimulated with anti-CD3/CD28 antibodies and IL-2 in the presence of cytotoxic drugs or lethal γ-irradiation. After 7 days there was a significant difference in survival markers Annexin V and 7-AAD in stimulated T cells receiving any cytotoxic insult with stimulation (FIG. 1B-I). The selection of TCD4, FoxP3 was not as consistent as cytotoxicity. […] With the exception of ribosomal elongation inhibitor G418, each cytotoxic treatment appeared to increase the percentage of surviving TCD4, FoxP3. See Bar-Nun S. et al., Biochimica et biophysica acta 1983, 741(1):123-127. […] Without wishing to be bound by theory, this pathway is likely related to the reduced proliferation rate of Treg, and appears to be ribosomally mediated as G418 can inhibit this general trend of increasing TCD4, FoxP3 percentage. See Cao M. et al., International journal of radiation biology 2011, 87(1):71-80.

The test system of another data set is Jurkat. As to the kind of experiment: AThyR transgene selection in electroporated Jurkat, eGFP+ viable cells by PI exclusion. The following applies: anti-folate toxicity. The protocol: The Amaxa Nucleofector® II (Lonza, Allendale, N.J.) was used to electroporate both Jurkat and human PBMC. Electroporation of Jurkat cells utilized a modified buffer (Chicaybam et al., Proceedings of the National Academy of Sciences of the United States of America 2002, 99(6):3400-3405) containing 5 mM KCl, 15 mM MgCl2, 120 mM Na2HPO4/NaH2PO4, pH 7.2, and 50 mM DMSO, where 10^6 Jurkat cells per cuvette were electroporated using program T-14 before immediate transfer to CM. The addition of drug occurred 48 hours after electroporation and cell culture remained undisturbed until sampling for gene expression on days 10-12 post electroporation. Human PBMC electroporation followed a previously described protocol (Rushworth et al., supra). […]
To test the enhanced survival of each AThyR, constructs individually expressing DHFR^FS, TYMS^SS, and NeoR were ligated into the same backbone containing Sleeping Beauty (SB) transposable elements upstream of eGFP (FIG. 1B), eGFP was used to track the predominance of surviving genetically-modified T cells. […] Jurkat were assessed for eGFP expression in viable cells by propidium iodide (PI) exclusion on day 10-12 (FIG. 1C). […] Overall survival and mean fluorescence intensity (MFI) of eGFP are also given in FIG. 2AI and AII, respectively.

Entries after “also recorded” stand apart in the source; their conditions may differ. Read-outs that look alike come from different tables or passages of the source.

Consider `O=c1[nH]cc(F)c(=O)[nH]1` [5-FU, 5-fluorouracil], for which, in the data set on Treg, the “Expression of CD25, CTLA-4, or loss of IL-2” value is given as “no significant difference” and the “Expression of Treg-specific marker LAP” value is “significantly increased”. Besides, in the data set with TCD4, FoxP3 [1], the “Selection of TCD4, FoxP3 in surviving population at lethal dose” value (from here on “Selection of TCD4, FoxP3”) is given as “Significant increases”. For the same compound, the “Suppression by treated Treg above untreated Treg” value in the data set with Teff is listed as “improved suppression”.

For `CN[C@@H]1[C@@H](O)[C@@H](O[C@@H]2[C@@H](O)[C@H](O[C@H]3O[C@H]([C@@H](C)O)[C@@H](O)[C@H](O)[C@H]3N)[C@@H](N)C[C@H]2N)OC[C@]1(C)O` [G418], the “Surviving TCD4, FoxP3 in the Treg compartment” value with Treg (Day 21, drug for first 7 days) is given as “persistently decreased surviving Treg”. The “Treg markers (CD25, CTLA-4, decreased IL-2, LAP) with FoxP3 expression” value with Treg (after stimulation on day 21) is given as “decreased”. For the same compound, in the data set with TCD4, FoxP3 [1], the “Selection of TCD4, FoxP3” value is “depleted” and the “Selection or depletion of TCD4, FoxP3, dose dependence” value (shortened to “Selection or depletion of TCD4, FoxP3”) was “significantly depleted TCD4, FoxP3 at two moderate drug doses; also recorded: Depletion”. The “Depletion of TCD4, FoxP3 under resting conditions” value in the data set on TCD4, FoxP3 [2] (PBMC rested in CM 9 days) is reported as “Significant depletion”. Besides, in the data set with TCD4, FoxP3 [2] (resting PBMC, 9 days), the “Depletion of CD4+, FoxP3+, Ki-67+ cells” value is given as “significant G418 mediated depletion” and the “Depletion of CD4+, FoxP3+, Ki-67neg cells” value was “not significantly depleted”. Moreover, the “Cytotoxicity, dose dependence” value with PBMC (thawed PBMC, 7 days) was “significantly cytotoxic at all doses tested”.

As to `CN(Cc1cnc2nc(N)nc(N)c2n1)c1ccc(C(=O)N[C@@H](CCC(=O)O)C(=O)O)cc1` [MTX, methotrexate], in the data set with Treg, the “Expression of CD25, CTLA-4, or loss of IL-2” value is “no significant difference” and the “Expression of Treg-specific marker LAP” value is recorded as “significantly increased”. For the same compound, in the data set with TCD4, FoxP3 [1], the “Selection of TCD4, FoxP3” value is listed as “Significant increases” and the “Selection or depletion of TCD4, FoxP3” value is listed as “significant elevation of TCD4, FoxP3, at lower doses”. For the same compound, in the data set on Teff, the “Suppression by treated Treg above untreated Treg” value is “improved suppression”. The “Relative toxicity to T cells” value in the data set on Jurkat is “more toxic to T cells than Pem”. In addition, the “Cytotoxicity, dose dependence” value in the data set on PBMC is “cytotoxic at all doses tested”.

For the compound `CO[C@H]1C[C@@H]2CC[C@@H](C)[C@@](O)(O2)C(=O)C(=O)N2CCCC[C@H]2C(=O)O[C@H]([C@H](C)C[C@@H]2CC[C@@H](O)[C@H](OC)C2)CC(=O)[C@H](C)/C=C(\C)[C@@H](O)[C@@H](OC)C(=O)[C@H](C)C[C@H](C)/C=C/C=C/C=C/1C` [Rapamycin], the “Cytotoxicity, dose dependence” value with PBMC is listed as “only occurred at the highest doses”.

With `Cc1c(N)nc([C@H](CC(N)=O)NC[C@H](N)C(N)=O)nc1C(=O)N[C@H](C(=O)N[C@H](C)[C@@H](O)[C@H](C)C(=O)N[C@H](C(=O)NCCC1=N[C@@H](c2nc(C(=O)NCCCCN=C(N)N)cs2)CS1)[C@@H](C)O)[C@@H](O[C@@H]1O[C@@H](CO)[C@@H](O)[C@H](O)[C@@H]1O[C@H]1O[C@H](CO)[C@@H](O)[C@H](OC(N)=O)[C@@H]1O)c1cnc[nH]1` [Zeocin], in the data set with TCD4, FoxP3 [1], the “Selection or depletion of TCD4, FoxP3” value is on record as “insignificant”.

As to gentamicin, the “Depletion of TCD4, FoxP3 in resting PBMC” value with TCD4, FoxP3 [2] (7 days) is “depletion of TCD4, FoxP3”.

(Values after US10808230B2, “Selection methods for genetically-modified T cells” (BOARD OF REGENTS, THE UNIVERSITY OF TEXAS SYSTEM, priority 2015, dated 2020).)
